# Data taken from ChEMBL document CHEMBL3784999, “Investigation of 4-amino-5-alkynylpyrimidine-2(1H)-ones as anti-mycobacterial agents” (Bioorg Med Chem, 2016).
# Activity calls are given as the source filed them. The calls are words filed in the database; no cut-off is given here.
# Assays:
# Mycobacterium avium = assay: Antimycobacterial activity against Mycobacterium avium ATCC 25291 assessed as inhibition of mycobacterial replication after 6 days by microplate Alamar blue assay; format: functional, Mycobacterium avium subsp. avium ATCC 25291; details: ATCC 25291, 144 h
# [1] = system: Mycobacterium tuberculosis; assay: Antimycobacterial activity against Mycobacterium tuberculosis H37Ra assessed as inhibition of mycobacterial replication after 6 days by microplate Alamar blue assay; format: functional; details: 144 h
# Mus musculus [2] = assay: Toxicity in BALB/c mouse infected with Mycobacterium tuberculosis H37Ra assessed as weight loss at 6.25 to 25 mg/kg, po administered for 2 weeks started on day 4 post bacterial infection in presence of isoniazid; format: organism-based; details: in vivo, 336 h
# Mus musculus [3] = assay: Toxicity in BALB/c mouse infected with Mycobacterium tuberculosis H37Ra assessed as behavioral changes at 6.25 to 25 mg/kg, po administered for 2 weeks started on day 4 post bacterial infection; format: organism-based; details: in vivo, 336 h
# Mus musculus [4] = assay: Toxicity in BALB/c mouse infected with Mycobacterium tuberculosis H37Ra assessed as change in amylase level in serum at 6.25 to 25 mg/kg, po administered for 2 weeks started on day 4 post bacterial infection; format: organism-based; details: in vivo, 336 h
# Mus musculus [5] = assay: Toxicity in BALB/c mouse infected with Mycobacterium tuberculosis H37Ra assessed as change in creatinine level in serum at 6.25 to 25 mg/kg, po administered for 2 weeks started on day 4 post bacterial infection in presence of isoniazid; format: organism-based; details: in vivo, 336 h
# [6] = system: Mycobacterium tuberculosis; assay: Antimycobacterial activity against Mycobacterium tuberculosis H37Ra infected in BALB/c mouse assessed as reduction of bacterial load in spleen at 25 mg/kg, po administered for 2 weeks started on day 4 post bacterial infection measured 3 days post last dose; format: functional
# Mus musculus [7] = assay: Toxicity in BALB/c mouse infected with Mycobacterium tuberculosis H37Ra assessed as change in phosphate level in serum at 6.25 to 25 mg/kg, po administered for 2 weeks started on day 4 post bacterial infection; format: organism-based; details: in vivo, 336 h
# [8] = system: Mycobacterium tuberculosis; assay: Antimycobacterial activity against Mycobacterium tuberculosis H37Ra infected in BALB/c mouse assessed as reduction of bacterial load in liver at 25 mg/kg, po administered for 2 weeks started on day 4 post bacterial infection measured 3 days post last dose; format: functional
# [9] = system: Mycobacterium tuberculosis; assay: Antimycobacterial activity against Mycobacterium tuberculosis H37Ra assessed as inhibition of mycobacterial replication at 6.25 ug/ml after 6 days by microplate Alamar blue assay in presence of isoniazid; format: functional; details: 144 h
# [10] = system: Mycobacterium tuberculosis; assay: Antimycobacterial activity against Mycobacterium tuberculosis H37Ra infected in BALB/c mouse assessed as reduction of bacterial load in lung at 12.5 mg/kg, po administered for 2 weeks started on day 4 post bacterial infection measured 3 days post last dose co-treated with 1 mg/kg, po isoniazid; format: functional
# [11] = system: Mycobacterium tuberculosis; assay: Antimycobacterial activity against Mycobacterium tuberculosis H37Ra infected in BALB/c mouse assessed as reduction of bacterial load in lung at 25 mg/kg, po administered for 2 weeks started on day 4 post bacterial infection measured 3 days post last dose; format: functional
# Mus musculus [12] = assay: Toxicity in BALB/c mouse infected with Mycobacterium tuberculosis H37Ra at 6.25 to 25 mg/kg, po administered for 2 weeks started on day 4 post bacterial infection by necroscopy; format: organism-based; details: in vivo, 336 h
# Mus musculus [13] = assay: Toxicity in BALB/c mouse infected with Mycobacterium tuberculosis H37Ra assessed as change in cholesterol level in serum at 6.25 to 25 mg/kg, po administered for 2 weeks started on day 4 post bacterial infection; format: organism-based; details: in vivo, 336 h
# [14] = system: Mycobacterium tuberculosis; assay: Ratio MIC90 for Mycobacterium tuberculosis H37Ra in presence of isoniazid to MIC90 for Mycobacterium tuberculosis H37Ra in absence of isoniazid; format: functional
# Mus musculus [15] = assay: Toxicity in BALB/c mouse infected with Mycobacterium tuberculosis H37Ra assessed as change in cholesterol level in serum at 6.25 to 25 mg/kg, po administered for 2 weeks started on day 4 post bacterial infection in presence of isoniazid; format: organism-based; details: in vivo, 336 h
# Mus musculus [16] = assay: Toxicity in BALB/c mouse infected with Mycobacterium tuberculosis H37Ra assessed as change in calcium level in serum at 6.25 to 25 mg/kg, po administered for 2 weeks started on day 4 post bacterial infection; format: organism-based; details: in vivo, 336 h
# Mus musculus [17] = assay: Toxicity in BALB/c mouse infected with Mycobacterium tuberculosis H37Ra assessed as gross necroscopy changes at 6.25 to 25 mg/kg, po administered for 2 weeks started on day 4 post bacterial infection; format: organism-based; details: in vivo, 336 h
# Mus musculus [18] = assay: Toxicity in BALB/c mouse infected with Mycobacterium tuberculosis H37Ra assessed as change in urea level in serum at 6.25 to 25 mg/kg, po administered for 2 weeks started on day 4 post bacterial infection; format: organism-based; details: in vivo, 336 h
# Mus musculus [19] = assay: Toxicity in BALB/c mouse infected with Mycobacterium tuberculosis H37Ra assessed as weight loss at 6.25 to 25 mg/kg, po administered for 2 weeks started on day 4 post bacterial infection; format: organism-based; details: in vivo, 336 h
# [20] = Cytotoxicity against African green monkey Vero cells assessed as cell viability after 3 days by XTT assay; format: cell-based; details: chlorocebus sabaeus
# Mus musculus [21] = assay: Toxicity in BALB/c mouse infected with Mycobacterium tuberculosis H37Ra assessed as change in phosphate level in serum at 6.25 to 25 mg/kg, po administered for 2 weeks started on day 4 post bacterial infection in presence of isoniazid; format: organism-based; details: in vivo, 336 h
# [22] = system: Mycobacterium tuberculosis; assay: Antimycobacterial activity against Mycobacterium tuberculosis H37Ra assessed as inhibition of mycobacterial replication at 6.25 ug/ml after 6 days by microplate Alamar blue assay in absence of isoniazid; format: functional, organism-based
# Mus musculus [23] = assay: Toxicity in BALB/c mouse infected with Mycobacterium tuberculosis H37Ra assessed as behavioral changes at 6.25 to 25 mg/kg, po administered for 2 weeks started on day 4 post bacterial infection in presence of isoniazid; format: organism-based; details: in vivo, 336 h
# Mus musculus [24] = assay: Toxicity in BALB/c mouse infected with Mycobacterium tuberculosis H37Ra assessed as change in alkaline phosphatase level in serum at 6.25 to 25 mg/kg, po administered for 2 weeks started on day 4 post bacterial infection; format: organism-based; details: in vivo, 336 h
# Mus musculus [25] = assay: Toxicity in BALB/c mouse infected with Mycobacterium tuberculosis H37Ra assessed as change in creatinine level in serum at 6.25 to 25 mg/kg, po administered for 2 weeks started on day 4 post bacterial infection; format: organism-based; details: in vivo, 336 h
# [26] = system: Mycobacterium tuberculosis; assay: Antimycobacterial activity against Mycobacterium tuberculosis H37Ra infected in BALB/c mouse assessed as reduction of bacterial load in spleen at 12.5 mg/kg, po administered for 2 weeks started on day 4 post bacterial infection measured 3 days post last dose co-treated with 1 mg/kg, po isoniazid; format: functional
# Mus musculus [27] = assay: Toxicity in BALB/c mouse infected with Mycobacterium tuberculosis H37Ra assessed as change in urea level in serum at 6.25 to 25 mg/kg, po administered for 2 weeks started on day 4 post bacterial infection in presence of isoniazid; format: organism-based; details: in vivo, 336 h
# Mus musculus [28] = assay: Toxicity in BALB/c mouse infected with Mycobacterium tuberculosis H37Ra assessed as change in calcium level in serum at 6.25 to 25 mg/kg, po administered for 2 weeks started on day 4 post bacterial infection in presence of isoniazid; format: organism-based; details: in vivo, 336 h
# Mus musculus [29] = assay: Toxicity in BALB/c mouse infected with Mycobacterium tuberculosis H37Ra assessed as change in amylase level in serum at 6.25 to 25 mg/kg, po administered for 2 weeks started on day 4 post bacterial infection in presence of isoniazid; format: organism-based; details: in vivo, 336 h
# Mus musculus [30] = assay: Toxicity in BALB/c mouse infected with Mycobacterium tuberculosis H37Ra assessed as change in alkaline phosphatase level in serum at 6.25 to 25 mg/kg, po administered for 2 weeks started on day 4 post bacterial infection in presence of isoniazid; format: organism-based; details: in vivo, 336 h
# Mus musculus [31] = assay: Toxicity in BALB/c mouse infected with Mycobacterium tuberculosis H37Ra at 6.25 to 25 mg/kg, po administered for 2 weeks started on day 4 post bacterial infection by necroscopy in presence of isoniazid; format: organism-based; details: in vivo, 336 h
smiles,measurement,setting,value
CO[C@H]1/C=C/O[C@@]2(C)Oc3c(C)c(O)c4c(O)c(c(/C=N/N5CCN(C)CC5)c(O)c4c3C2=O)NC(=O)/C(C)=C\C=C\[C@H](C)[C@H](O)[C@@H](C)[C@@H](O)[C@@H](C)[C@H](OC(C)=O)[C@@H]1C [RIFAMPIN],MIC90,Mycobacterium avium,2 µg/mL
same,MIC90,[1],0.5 µg/mL
Nc1nc(=O)[nH]cc1C#Cc1ccccc1,Activity,Mus musculus [2],Non-toxic
same,Activity,Mus musculus [3],Non-toxic
same,Activity,Mus musculus [4],Non-toxic
same,Activity,Mus musculus [5],Non-toxic
same,inhibition,[6],inactive
same,Activity,Mus musculus [7],Non-toxic
same,inhibition,[8],inactive
same,inhibition at 6.25 µg/mL,[9],100%
same,inhibition (INH),[10],70%
same,inhibition,[11],inactive
same,Activity,Mus musculus [12],Non-toxic
same,Activity,Mus musculus [13],Non-toxic
same,fractional inhibitory concentration index (FICI),[14],0.25
same,Activity,Mus musculus [15],Non-toxic
same,Activity,Mus musculus [16],Non-toxic
same,Activity,Mus musculus [17],Non-toxic
same,Activity,Mus musculus [18],Non-toxic
same,Activity,Mus musculus [19],Non-toxic
same,CC50 at 72 h,[20],> 200 µg/mL
same,Activity,Mus musculus [21],Non-toxic
same,inhibition,[22],inactive
same,Activity,Mus musculus [23],Non-toxic
same,Activity,Mus musculus [24],Non-toxic
same,Activity,Mus musculus [25],Non-toxic
same,MIC50,[1],25 µg/mL
same,inhibition (INH),[26],45%
same,Activity,Mus musculus [27],Non-toxic
same,Activity,Mus musculus [28],Non-toxic
same,Activity,Mus musculus [29],Non-toxic
same,Activity,Mus musculus [30],Non-toxic
same,Activity,Mus musculus [31],Non-toxic
